IC50 data for 28 molecules are collected here from patent publication US10464947B2 (Incyte Corporation, priority 2013, dated 2019).

Structures can show the parent of a compound that is named as a salt. Some results are limits rather than exact numbers.

The first assay relates to C-myc in KMS.12.BM cells. As to the kind of experiment: KMS.12.BM C-Myc ELISA Assay (Example C1). Format: cell-based. The note with it: Homo sapiens, 2 h. The protocol:
KMS.12.BM C-Myc ELISA Assay
KMS.12.BM cell line (human myeloma) was purchased from JCRB (Osaka, Japan) and maintained in RPMI with 10% FBS culture medium. To measure the C-myc inhibitory activity of the compounds, the KMS.12.BM cells are plated in the RPMI culture medium at 75000 cells/well/per 200 μL into a 96-well flat bottom polystyrene tissue culture plate (Corning through VWR, NJ), in the presence or absence of a concentration range of test compounds. After 2 h, cells are pelleted and lysed with Cell Extraction Buffer (BioSource, Carlsbad, Calif.) in the presence of protease inhibitors (Life Technologies, Grand Island, N.Y. and Sigma, St Louis, Mo.). Clarified lyses are tested in a C-myc commercial ELISA (Life Technologies, Grand Island, N.Y.).
In general terms: ELISA stands for enzyme-linked immunosorbent assay.
On to `Cc1noc(C)c1-c1ccc2nc(NC(C)C)n3c2c1OCC3c1ccccc1` (stereo not drawn) [Example 25, 7-(3,5-Dimethylisoxazol-4-yl)-N-isopropyl-4-phenyl-4,5-dihydroimidazo[1,5,4-de][1,4]benzoxazin-2-amine], for which the IC50 was less than 1000 nM.

Consider `CNC(=O)c1ncccc1C1COc2c(-c3c(C)noc3C)ccc3[nH]c(=O)n1c23` (stereo not drawn) [Example 128, 3-[7-(3,5-Dimethylisoxazol-4-yl)-2-oxo-1,2,4,5-tetrahydroimidazo[1,5,4-de][1,4]benzoxazin-4-yl]-N-methylpyridine-2-carboxamide], for which the 50% inhibitory concentration (IC50) is less than 1000 nM.

The molecule `Cc1noc(C)c1-c1ccc2nc(C3CCNC3)n3c2c1OC[C@@H]3c1ccccn1` (single isomer, unassigned) [Example 106A] registered a 50% inhibitory concentration (IC50) of less than 1000 nM.

The subject of another assay is KMS.12.BM cells. Put plainly: KMS.12.BM Cell Viability Assay (Example B1). In kind it is cell-based, human. The note with it: Homo sapiens, 72 h, 3 days, Cell Titer-GLO, read-out: KMS cellular IC50. Summed up: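 KMS.12.BM human myeloma cells, 5000 cells/well in RPMI with 10% FBS, exposed to a compound concentration range for 3 days. Viable cells measured by ATP-based Cell Titer-GLO luminescence after 10 min at room temperature.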
A general note: Cellular ATP, detected with luciferase, serves as a proxy for viable cell number.
`Cc1noc(C)c1-c1ccc2nc(NC(C)C)n3c2c1OCC3c1ccccc1` (stereo not drawn) [Example 25, 7-(3,5-Dimethylisoxazol-4-yl)-N-isopropyl-4-phenyl-4,5-dihydroimidazo[1,5,4-de][1,4]benzoxazin-2-amine]: the IC50 was less than 1000 nM.

In the case of `CNC(=O)c1ncccc1C1COc2c(-c3c(C)noc3C)ccc3[nH]c(=O)n1c23` (stereo not drawn) [Example 128, 3-[7-(3,5-Dimethylisoxazol-4-yl)-2-oxo-1,2,4,5-tetrahydroimidazo[1,5,4-de][1,4]benzoxazin-4-yl]-N-methylpyridine-2-carboxamide], the IC50 is less than 1000 nM.

As to `Cc1noc(C)c1-c1ccc2nc(N3CC[C@@H](NC(=O)OC(C)(C)C)C3)n3c2c1OC[C@@H]3c1ccccn1` [Example 182A, tert-butyl {(3R)-1-[(4S)-7-(3,5-dimethylisoxazol-4-yl)-4-pyridin-2-yl-4,5-dihydroimidazo[1,5,4-de][1,4]benzoxazin-2-yl]pyrrolidin-3-yl}carbamate], the IC50 is less than 1000 nM.

For the molecule `Cc1noc(C)c1-c1ccc2nc(N3CCN(C(C)C)CC3)n3c2c1OC[C@@H]3c1ccccn1` [Example 174, (4S)-7-(3,5-dimethylisoxazol-4-yl)-2-(4-isopropylpiperazin-1-yl)-4-pyridin-2-yl-4,5-dihydroimidazo[1,5,4-de][1,4]benzoxazine], the IC50 was less than 1000 nM.

For the molecule `CCS(=O)(=O)N1CCCN(c2nc3ccc(-c4c(C)noc4C)c4c3n2[C@@H](c2ccccn2)CO4)CC1` [Example 248, (4S)-7-(3,5-dimethylisoxazol-4-yl)-2-[4-(ethylsulfonyl)-1,4-diazepan-1-yl]-4-pyridin-2-yl-4,5-dihydroimidazo[1,5,4-de][1,4]benzoxazine], the IC50 was less than 1000 nM.

In the case of `Cc1noc(C)c1-c1ccc2nc(N3CCN(Cc4ccccc4)CC3)n3c2c1OC[C@@H]3c1ccccn1` [Example 179, (4S)-2-(4-benzylpiperazin-1-yl)-7-(3,5-dimethylisoxazol-4-yl)-4-pyridin-2-yl-4,5-dihydroimidazo[1,5,4-de][1,4]benzoxazine], the IC50 is less than 1000 nM.

For the molecule `CC(=O)N[C@H]1CCN(c2nc3ccc(-c4c(C)noc4C)c4c3n2[C@@H](c2ccccn2)CO4)C1` [Example 201B, N-{(3S)-1-[(4S)-7-(3,5-dimethylisoxazol-4-yl)-4-pyridin-2-yl-4,5-dihydroimidazo[1,5,4-de][1,4]benzoxazin-2-yl]pyrrolidin-3-yl}acetamide], the IC50 is less than 1000 nM.

With `Cc1noc(C)c1-c1ccc2nc(N3CCOCC3)n3c2c1OC[C@@H]3c1ccccn1` [Example 161, (4S)-7-(3,5-dimethylisoxazol-4-yl)-2-morpholin-4-yl-4-pyridin-2-yl-4,5-dihydroimidazo[1,5,4-de][1,4]benzoxazine], the IC50 is less than 1000 nM.

As for `CCNc1nc2c(F)cc(-c3c(C)noc3C)c3c2n1C(c1cccnc1)CO3` (stereo not drawn) [Example 158, 7-(3,5-Dimethylisoxazol-4-yl)-N-ethyl-9-fluoro-4-pyridin-3-yl-4,5-dihydroimidazo[1,5,4-de][1,4]benzoxazin-2-amine], the IC50 was less than 1000 nM.

With `CCS(=O)(=O)NC1CN(c2nc3ccc(-c4c(C)noc4C)c4c3n2[C@@H](c2ccccn2)CO4)C1` [Example 238, N-{1-[(4S)-7-(3,5-dimethylisoxazol-4-yl)-4-pyridin-2-yl-4,5-dihydroimidazo[1,5,4-de][1,4]benzoxazin-2-yl]azetidin-3-yl}ethanesulfonamide], the IC50 was less than 1000 nM.

As for `CCC(=O)NC1CCN(c2nc3ccc(-c4c(C)noc4C)c4c3n2[C@@H](c2ccccn2)CO4)CC1` [Example 243, N-{1-[(4S)-7-(3,5-dimethylisoxazol-4-yl)-4-pyridin-2-yl-4,5-dihydroimidazo[1,5,4-de][1,4]benzoxazin-2-yl]piperidin-4-yl}propanamide], the IC50 was less than 1000 nM.

Regarding `Cn1nccc1-c1cc(Br)c2[nH]c(=O)n3c2c1OCC3c1ccccc1` (stereo not drawn) [Example 36, 9-Bromo-7-(1-methyl-1H-pyrazol-5-yl)-4-phenyl-4,5-dihydroimidazo[1,5,4-de][1,4]benzoxazin-2(1H)-one], the IC50 was less than 1000 nM.

As to `Cc1noc(C)c1-c1ccc2[nH]c(=O)n3c2c1OCC3C1CCCO1` (single isomer, unassigned) [Example 18A, 7-(3,5-Dimethylisoxazol-4-yl)-4-(tetrahydrofuran-2-yl)-4,5-dihydroimidazo[1,5,4-de][1,4]benzoxazin-2(1H)-one], the IC50 is less than 1000 nM.

Regarding `Cc1noc(C)c1-c1ccc2nc(N3CCNC(=O)C3)n3c2c1OC[C@@H]3c1ccccn1` [Example 172, 4-[(4S)-7-(3,5-dimethylisoxazol-4-yl)-4-pyridin-2-yl-4,5-dihydroimidazo[1,5,4-de][1,4]benzoxazin-2-yl]piperazin-2-one], the IC50 was less than 1000 nM.

For the molecule `Cc1noc(C)c1-c1ccc2nc(N3CC(NC(=O)OC(C)(C)C)C3)n3c2c1OC[C@@H]3c1ccccn1` [Example 196, tert-butyl {1-[(4S)-7-(3,5-dimethylisoxazol-4-yl)-4-pyridin-2-yl-4,5-dihydroimidazo[1,5,4-de][1,4]benzoxazin-2-yl]azetidin-3-yl}carbamate], the IC50 was less than 1000 nM.

Turning to `Cc1noc(C)c1-c1cc(CNC(=O)CN(C)C)c2[nH]c(=O)n3c2c1OC[C@@H]3c1ccccn1` [Example 143, 2-(Dimethylamino)-N-{[(4S)-7-(3,5-dimethylisoxazol-4-yl)-2-oxo-4-pyridin-2-yl-1,2,4,5-tetrahydroimidazo[1,5,4-de][1,4]benzoxazin-9-yl]methyl}acetamide], the half-inhibitory concentration (IC50) was less than 1000 nM.

For `Cc1noc(C)c1-c1cc(-c2cccnc2)c2[nH]c(=O)n3c2c1OCC3c1ccccc1` (stereo not drawn) [Example 52, 7-(3,5-Dimethylisoxazol-4-yl)-4-phenyl-9-pyridin-3-yl-4,5-dihydroimidazo[1,5,4-de][1,4]benzoxazin-2(1H)-one], the half-inhibitory concentration (IC50) is less than 1000 nM.

On to `Cc1noc(C)c1-c1ccc2nc(N3CC(O)C3)n3c2c1OC[C@@H]3c1ccccn1` [Example 165, 1-[(4S)-7-(3,5-dimethylisoxazol-4-yl)-4-pyridin-2-yl-4,5-dihydroimidazo[1,5,4-de][1,4]benzoxazin-2-yl]azetidin-3-ol], for which the IC50 is less than 1000 nM.

With `Cc1noc(C)c1-c1ccc2nc(N3CCC[C@@H](O)C3)n3c2c1OC[C@@H]3c1ccccn1` [Example 170A, (3R)-1-[(4S)-7-(3,5-dimethylisoxazol-4-yl)-4-pyridin-2-yl-4,5-dihydroimidazo[1,5,4-de][1,4]benzoxazin-2-yl]piperidin-3-ol], the IC50 was less than 1000 nM.

On to `Cc1noc(C)c1-c1ccc2nc(N3CC(N)C3)n3c2c1OC[C@@H]3c1ccccn1` [Example 230, 1-[(4S)-7-(3,5-dimethylisoxazol-4-yl)-4-pyridin-2-yl-4,5-dihydroimidazo[1,5,4-de][1,4]benzoxazin-2-yl]azetidin-3-amine trihydrochloride], for which the IC50 was less than 1000 nM.

As to `CCNC(=O)[C@@H]1CCN(c2nc3ccc(-c4c(C)noc4C)c4c3n2[C@@H](c2ccccn2)CO4)C1` [Example 250, (3R)-1-[(4S)-7-(3,5-dimethylisoxazol-4-yl)-4-pyridin-2-yl-4,5-dihydroimidazo[1,5,4-de][1,4]benzoxazin-2-yl]-N-ethylpyrrolidine-3-carboxamide], the IC50 is less than 1000 nM.

On to `Cc1noc(C)c1-c1cc(C(O)C(C)C)c2[nH]c(=O)n3c2c1OCC3c1ccccn1` (stereo not drawn) [Example 264, 7-(3,5-dimethylisoxazol-4-yl)-9-(1-hydroxy-2-methylpropyl)-4-pyridin-2-yl-4,5-dihydroimidazo[1,5,4-de][1,4]benzoxazin-2(1H)-one], for which the IC50 was less than 1000 nM.

The assay is the same for the next values; noted with them: Homo sapiens, KMS-12-BM, 72 h, 3 days, Cell Titer-GLO, read-out: KMS cellular IC50.
On to `Cc1noc(C)c1-c1ccc2c3c1CCC(c1ccccc1)n3c(=O)n2C` (racemic) [Example 121, 7-(3,5-Dimethylisoxazol-4-yl)-1-methyl-4-phenyl-5,6-dihydro-4H-imidazo[4,5,1-ij]quinolin-2(1H)-one], for which the IC50 was less than 1000 nM.

On to `Cc1noc(C)c1-c1ccc2nc(N(C)CCO)n3c2c1OCC3c1ccccn1` (stereo not drawn) [Example 185, 2-[[7-(3,5-dimethylisoxazol-4-yl)-4-pyridin-2-yl-4,5-dihydroimidazo[1,5,4-de][1,4]benzoxazin-2-yl](methyl)amino]ethanol], for which the IC50 was less than 1000 nM.

On to `Cc1noc(C)c1-c1cc(C#N)c2[nH]c(=O)n3c2c1OCC3c1ccccn1` (stereo not drawn) [Example 269A, 7-(3,5-dimethylisoxazol-4-yl)-2-oxo-4-pyridin-2-yl-1,2,4,5-tetrahydroimidazo[1,5,4-de][1,4]benzoxazine-9-carbonitrile], for which the IC50 was less than 1000 nM.

On to `Cc1noc(C)c1-c1cc(-c2ccc(O)nc2)c2[nH]c(=O)n3c2c1OC[C@@H]3c1ccccn1` [Example 259, (4S)-7-(3,5-dimethylisoxazol-4-yl)-9-(6-hydroxypyridin-3-yl)-4-pyridin-2-yl-4,5-dihydroimidazo[1,5,4-de][1,4]benzoxazin-2(1H)-one], for which the IC50 was in the range of 1000 to 10000 nM.

With `Cc1noc(C)c1-c1ccc2[nH]c(=O)n3c2c1OCC3c1cccnc1C#N` (racemic) [Example 126, 3-[7-(3,5-Dimethylisoxazol-4-yl)-2-oxo-1,2,4,5-tetrahydroimidazo[1,5,4-de][1,4]benzoxazin-4-yl]pyridine-2-carbonitrile], the IC50 is less than 1000 nM.

Broadly, the IC50 is the concentration at which inhibition is half-maximal.
